{
  "source": "patent US11116802B2",
  "about": "“Extract effective in treating drug addiction and preparation method therefor” (GUANGXI JIUFU BIOTECHNOLOGY CO., LTD, priority 2016, dated 2021)",
  "key": {"[1]": {"system": "Sprague-Dawley rats", "assay": "Physical dependence test: naloxone-precipitated withdrawal response after 7 days of increasing doses", "type": "in vivo", "conditions": "morphine hydrochloride s.c. twice a day, 5 mg/kg to 60 mg/kg, naloxone 5 mg/kg on day 8, within 30 min", "method": "The morphine control group was injected subcutaneously with morphine hydrochloride twice a day. […] The Agriolima agrestis extract group was administered twice a day by oral gavage with increasing dose. The dosage was increased daily from […] to 3.0 g/kg and continuously administered until the 7th day. The negative control group was given the same volume of vegetable oil daily, and the administration time and frequency were the same as those in the Agriolima agrestis extract group. […]"}, "[2]": {"system": "morphine-induced excitability in mice", "assay": "Morphine-induced excitability (spontaneous activity recorder)", "type": "in vivo, KM mice", "method": "40 KM mice (female:male 1:1) were fastened for 12 hrs, but allowed to free access to water. The mice were randomly divided into 4 groups, including a blank control group, a group with low-dose Agriolima agrestis extract (0.4 g/kg) prepared in the present invention, a group with high-dose Agriolima agrestis extract (0.8 g/kg) prepared in the present invention, and a positive control group (estazolam 2 mg/kg). Each group of mice was placed in a YLS-1A multifunctional small animal spontaneous activity recorder. After 5 minutes of accommodation, the number of spontaneous activities of the mice before administration was measured, and the recording time was 10 min. Each group of mice was administered at the above dosage, and the blank control group was administered by oral gavage with the same volume of normal saline. […] After 15 minutes, the mice were placed in the recorder to observe and record the number of activities of the mice within 10 min."}, "[3]": {"system": "amphetamine-induced excitability in mice", "assay": "Amphetamine-induced excitability (spontaneous activity recorder)", "type": "in vivo, KM mice", "method": "40 KM mice (female:male 1:1) were fastened for 12 hrs, but allowed to free access to water. The mice were randomly divided into 4 groups, including a blank control group, a group with low-dose Agriolima agrestis extract (0.4 g/kg) prepared in the present invention, a group with high-dose Agriolima agrestis extract (0.8 g/kg) prepared in the present invention, and a positive control group (estazolam 2 mg/kg). Each group of mice was placed in a YLS-1A multifunctional small animal spontaneous activity recorder. After 5 minutes of accommodation, the number of spontaneous activities of the mice before administration was measured, and the recording time was 10 min.\nEach group of mice was administered by oral gavage at the above dosage, and the blank control group was administered with the same volume of normal saline. Each mouse was intraperitoneally injected with amphetamine (8 mg/kg) 30 min after administration. After 15 minutes, the mice were placed in the recorder to observe and record the number of activities of the mice within 10 min."}, "[4]": {"system": "sleep time of mice with pentobarbital sodium", "assay": "Sleep time with pentobarbital sodium", "type": "in vivo, KM mice", "conditions": "estazolam 2 mg/kg; pentobarbital sodium 50 mg/kg 45 min after administration", "method": "40 KM mice (female:male 1:1) were fastened for 12 hrs, but allowed to free access to water. The mice were randomly divided into 4 groups, including a blank control group, a group with low-dose Agriolima agrestis extract (0.4 g/kg) prepared in the present invention, a group with high-dose Agriolima agrestis extract (0.8 g/kg) prepared in the present invention, and a positive control group (estazolam 2 mg/kg). Each group of mice was administered at the above dosage, and the blank control group was administered with the same volume of normal saline. After 45 minutes, each mouse was given 50 mg/kg of pentobarbital sodium, and then the sleep time of each group of mice was recorded (where the time at which the righting reflex disappeared after the administration was taken as the sleep onset time of the mice, and the duration from the time at which the righting reflex disappeared to the time at which the righting reflex returned was taken as the sleep time)."}, "[5]": {"system": "morphine-dependent rats", "assay": "Naloxone-precipitated withdrawal symptom scores in morphine-dependent rats", "type": "in vivo, Sprague-Dawley rats", "conditions": "methadone 20 mg/kg, naloxone 5 mg/kg 45 min after administration, response within 30 min", "method": "(§1) 50 Sprague-Dawley rats (female:male 1:1) were randomized into 5 groups. Group (1) was a blank control group, and the rats were subcutaneously injected with normal saline. […] Each group was given a different treatment. Group (1), that is, the blank control group, was given the same volume of normal saline. […] Group (3), that is, the positive control group, was given 20 mg/kg of methadone. Groups (4) and (5), that is, groups with low and high doses of Agriolima agrestis extract prepared in the present invention, were given Agriolima agrestis extract at a dosage of 0.3 g/kg and 0.6 g/kg respectively. Each group of rats was administered for consecutive 3 days. The rats were allowed to free access to water and food. 45 minutes after administration on the first and third days of treatment, naloxone (5 mg/kg) was given for precipitation respectively. The withdrawal response of the rats within 30 minutes and the changes of body weight before and after precipitation (1 h) were observed."}, "[6]": {"assay": "Difference in body weight of rats before and after naloxone precipitation", "type": "in vivo, Sprague-Dawley rats", "conditions": "morphine-dependent rats, methadone 20 mg/kg, 1 h after precipitation", "method": "as §1"}, "[7]": {"system": "morphine-dependent mice", "assay": "Jumps of morphine-dependent mice upon naloxone-precipitated withdrawal", "type": "in vivo, KM mice", "conditions": "methadone 20 mg/kg, naloxone 8 mg/kg 1 hr after administration", "method": "(§2) 50 KM mice (female:male 1:1) were randomized into 5 groups. Group (1) was a blank control group, and the mice were subcutaneously injected with normal saline. […] Each group was given a different treatment. Group (1), that is, the blank control group, was given the same volume of normal saline. […] Group (3), that is, the positive control group, was given 20 mg/kg of methadone. Groups (4) and (5), that is, groups with low and high doses of Agriolima agrestis extract prepared in the present invention, were given Agriolima agrestis extract at a dosage of 0.4 g/kg and 0.8 g/kg respectively. Each group of mice was administered for consecutive 3 days. The mice were allowed to free access to water and food. 1 hrs after administration on the first and third days of treatment, naloxone (8 mg/kg) was given for precipitation respectively. The jump reaction of the mice in each group within 30 minutes and the changes of body weight before and after precipitation were observed."}, "[8]": {"assay": "Difference in body weight of mice before and after naloxone precipitation", "type": "in vivo, KM mice", "conditions": "morphine-dependent mice, methadone 20 mg/kg", "method": "as §2"}, "[9]": {"conditions": "baseline of estazolam 2 mg/kg group, recording time 10 min"}},
  "data": [
    {"smiles": "CN1CC[C@]23c4c5ccc(O)c4O[C@H]2[C@@H](O)C=C[C@H]3[C@H]1C5.Cl", "note": "[Morphine, morphine hydrochloride]", "values": [
      {"measurement": "Withdrawal response score", "setting": "[1]", "result": "76.9 ± 14.53"}
    ]},
    {"smiles": "Clc1ccc2c(c1)C(c1ccccc1)=NCc1nncn1-2", "note": "[estazolam]", "values": [
      {"measurement": "Activities before administration", "setting": "[2]; [9]", "result": "171.2 ± 38.94", "unit": "counts/min"},
      {"measurement": "Activities after administration", "setting": "[2]; estazolam 2 mg/kg, morphine 10 mg/kg i.p. 30 min after administration, recorded 15 min later within 10 min", "result": "67.9 ± 40.31", "unit": "counts/min"},
      {"measurement": "Activities before administration", "setting": "[3]; [9]", "result": "183.7 ± 32.99", "unit": "counts/min"},
      {"measurement": "Activities after administration", "setting": "[3]; estazolam 2 mg/kg oral gavage, amphetamine 8 mg/kg i.p. 30 min after administration, recorded 15 min later within 10 min", "result": "83.0 ± 40.14", "unit": "counts/min"},
      {"measurement": "Sleep time of mice", "setting": "[4]", "result": "66.22 ± 13.77", "unit": "min"}
    ]},
    {"smiles": "CCC(=O)C(CC(C)N(C)C)(c1ccccc1)c1ccccc1", "note": "(centres unmarked) [methadone]", "values": [
      {"measurement": "Naloxone-precipitated withdrawal symptom score, Day 1", "setting": "[5]; day 1 of treatment", "result": "49.35 ± 14.41"},
      {"measurement": "Naloxone-precipitated withdrawal symptom score, Day 3", "setting": "[5]; day 3 of treatment", "result": "35.6 ± 18.73"},
      {"measurement": "Difference in body weight (before precipitation − after precipitation), Day 1", "setting": "[6]; day 1", "result": "15.6 ± 6.39", "unit": "g"},
      {"measurement": "Difference in body weight (before precipitation − after precipitation), Day 3", "setting": "[6]; day 3", "result": "2.6 ± 2.75", "unit": "g"},
      {"measurement": "Jumps upon precipitated withdrawal, Day 1", "setting": "[7]; day 1", "result": "25.1 ± 6.9", "unit": "jumps/30 min"},
      {"measurement": "Jumps upon precipitated withdrawal, Day 3", "setting": "[7]; day 3", "result": "22.9 ± 6.81", "unit": "jumps/30 min"},
      {"measurement": "Difference in body weight (before precipitation − after precipitation), Day 1", "setting": "[8]; day 1", "result": "0.22 ± 0.19", "unit": "g"},
      {"measurement": "Difference in body weight (before precipitation − after precipitation), Day 3", "setting": "[8]; day 3", "result": "0.46 ± 0.23", "unit": "g"}
    ]}
  ]
}
